Test results taken from US20080220056A1, “Treatment for liver disease” (UNIVERSITY OF SOUTHAMPTON, priority 2002, published 2008).

How the values were obtained:
[1] = tested on: rat hepatocytes; test: Rat hepatocyte viability by attachment and trypan blue exclusion; type: cell-based; details: 200 μmol/L, four hours
Experimental: Rat hepatocytes were isolated by collagenase perfusion essentially as previously described. (Harvey et al., Biochemical J., (1998) 331:273-281). Hepatocytes were cultured as outlined for hepatic stellate cells except that they were initially seeded onto collagen coated plates in William's medium E supplemented with 10% fetal calf serum and 1 μg/mL insulin for the first 2 hours.
Cells were treated with gliotoxin dissolved in DMSO vehicle (added to medium from a 2000-fold molar concentrated stock). Control cells received DMSO vehicle only (i.e., 0.05% vol/vol). All other additions to culture medium were made from concentrated stocks dissolved in DMSO or by direct addition to culture medium. Protein contents of wells were determined using the Lowry assay (Lowry et al., J. Biol. Chem., (1951)193: 265-275).
The effect of various compounds on cell viability and attachment was determined. Viability of rat hepatocytes as judged by attachment and 0.1% (wt/vol) trypan blue exclusion after four hours treatment with: […]

[2] = tested on: rat hepatocytes; test: DNA laddering in rat hepatocytes; type: cell-based; details: four hours; 50 μmol/L gliotoxin, 200 μmol/L chlorpromazine, 200 μmol/L methapyrilene, 10 ng/mL TNF-α with cycloheximide
Experimental: Hepatic stellate cells cultured in 35-mm diameter dishes (Greiner) were harvested, pelleted by centrifugation and DNA fragmentation determined as outlined elsewhere (Elsharkawy et al., Hepatology (1999) 30:761-769). Propidium Iodide Flow-Activated Cell Sorting Analysis Detached cells were pelleted by centrifugation, washed in PBS, and resuspended in HYPO buffer (0.1% wt/vol) Na3Citrate and 0.1% (wt/vol) Triton™ X-100 containing […] propidium iodide and incubated for 1 hour. The cells were then analyzed by fluorescence-activated cell sorter (FACS) with a Becton Dickinson (San Jose, Calif.) FACScan instrument using a 488 nm excitation wavelength with a band pass filter set at 530 nm. Attached cells were scraped in HYPO buffer after washing cells with PBS.
DNA laddering was also used to compare the effect of gliotoxin, chlorpromazine, methapyrilene and also the combination of TNF-α with cycloheximide on hepatocytes and hepatic stellate cells.

[3] = tested on: caspase 3 activity in rat hepatic stellate cells; test: Caspase 3 (Ac-DEVD-pNA cleavage) activity in rat hepatic stellate cells; type: cell-based; details: 200 μmol/L chlorpromazine, three hours
Experimental: Hepatic stellate cells cultured in 100 mm diameter dishes (Greiner, Frickenhausen, Germany) were harvested and pelleted by centrifugation. The medium supernatant was discarded and the cell pellet was washed in 1 mL of ice-cooled phosphate buffered saline (PBS). Caspase 3 (DEVDase) activity was determined using a colorimetric CaspACE kit (Promega, Southampton, England) using the manufacturer's instructions.
Caspase 3 (Ac-DEVD-pNA cleavage) activity was then examined in control and gliotoxin-treated hepatic stellate cells. Culture activated rat hepatic stellate cells (14 days) in 100 mm diameter plates were treated with 0.05% (vol/vol) DMSO, 1.5 μmol/L gliotoxin, 20 μmol/L Z-VAD-FMK or 200 μmol/L chlorpromazine for three hours. The cells were then harvested for examination of caspase 3 activity as outlined in the materials and methods sections.

[4] = tested on: rat hepatic stellate cells; test: Trypan blue exclusion of treated rat hepatic stellate cells; type: cell-based; details: rat HSC; 1.5 μmol/L gliotoxin or 200 μmol/L chlorpromazine
[5] = tested on: 10 day culture activated hepatic stellate cells; test: Nuclear morphology (acridine orange) of hepatic stellate cells treated with 5-HT2 antagonists; type: cell-based, rat
Experimental: (§1) The mRNA for the 5-HT2B receptor was only found in 10 day culture activated hepatic stellate cells, whereas the mRNA for the 5-HT2C receptor was absent from all cells investigated. […] 10 day culture activated hepatic stellate cells were treated with a range of 5-HT2 antagonists (including Spiperone HCl, Methiothepin Maleate and LY 53,857) at various concentrations and time periods and nuclear morphology was assessed using Acridine Orange (1 μg/ml) staining as described in Examples 1 and 2. […] Caspase 3 activity (as defined by pNA liberation) was subsequently determined at the predetermined optimal times and doses as described in Examples 1 and 2. 10 day culture activated hepatic stellate cells were also treated with the antagonist together with the 5-HT2 agonist serotonin (5-hydroxytryptamine 100 µM) to see if any modification of the caspase 3 specific activity could be achieved by direct receptor binding site competition.

[6] = tested on: caspase 3 activity in 10 day culture activated hepatic stellate cells; test: Caspase 3 activity (pNA liberation) of hepatic stellate cells treated with 5-HT2 antagonists; type: cell-based, rat; details: for effect of serotonin on the specific caspase 3 activity: LY 53,857 100 μM 24 hours, Methiothepin maleate 10 μM 3 hours, with serotonin (100 M [sic])
Experimental: as §1

[7] = tested on: caspase-3 activity in hepatic stellate cells; test: Caspase-3 activity in cycloheximide-treated hepatic stellate cells; type: cell-based; details: wild type TIMP-1 or T2G mutant N-TIMP-1
Experimental: Apoptosis was quantified by a colorimetric assay for caspase-3 activity (Promega) according to the manufacturer's instructions.
Caspase-3 is a central caspase in the proapoptotic cascade (Hengartner, Nature (2000) 407, 770-776) and can be used as an alternative assay to assess apoptosis. Hepatic stellate cells were cultured in 50 μM cycloheximide with TIMP-1 at a concentration of 0, 1, 10, or 100 ng/ml. Controls where cells were incubated with either the caspase 3 inhibitor benzyloxycarbonyl-Val-Ala-Asp-fluoromethylketone or serum alone were also performed. Data are expressed as mean ±S.E. and are presented as percentage of control given the arbitrary value of 100%. * indicates p<0.001; n=3. […] Although the mean caspase-3 activity of the cells treated with 10 ng/ml TIMP-1 was slightly lower than that treated with 100 ng/ml of TIMP-1, this was not statistically significant (p=0.67 by Student's t test).

[8] = tested on: rat hepatic stellate cells; test: Hepatic stellate cell apoptosis by acridine orange staining and counting (cycloheximide or serum deprivation), rat cells; type: cell-based; details: rat HSC; protein at 142.5 ng/ml
Experimental: (§2) Human hepatic stellate cells were extracted from the margins of normal human liver resected for colonic metastatic disease as previously described (Iredale et al., Clin. Sci., (1995) 89: 75-81). Rat hepatic stellate cells were extracted from normal rat liver by Pronase and collagenase digestion and purified by centrifugal elutriation as described (Arthur et al., J. Clin. Invest., (1989) 84:1076-1085). Extracted hepatic stellate cells were cultured on plastic until they were activated to a myofibroblastic phenotype after 7 to 10 days. Human and rat hepatic stellate cells were used for experiments after activation in primary culture or before fourth passage. Cells were cultured in Dulbecco's modified Eagle's medium in the presence of 16% fetal calf serum and antibiotics.
(§3) Apoptosis of hepatic stellate cells was induced by absolute serum deprivation, cycloheximide treatment (Issa et al., Gut (2001) 48: S48-S57), or exposure to nerve growth factor as previously described (Trim et al., Am. J. Pathol., (2000) 156, 1235-1243). Hepatic stellate cells were cultured in 24-well tissue culture plates. Rat and human hepatic stellate cells were exposed to proapoptotic stimuli with and without recombinant TIMP-1 (Biogenesis, Poole, UK) and other manipulations as detailed below. Following a 4 hour incubation at 37° C., nuclear morphology was assessed by adding acridine orange to each well (final concentration 1 μg/ml) and observing the cells under blue fluorescence. The total number of apoptotic bodies was counted, and any apoptotic bodies floating in the supernatant were included by racking up the objective lens. The total number of cells per field was counted, and an apoptotic index was calculated. Each condition was performed in duplicate, and three high power fields were counted for each well. […] To examine for autocrine effects, hepatic stellate cells were incubated for 18 hours with azide-free polyclonal neutralizing antibodies to TIMP-1 and a nonimmune IgG control (Santa Cruz Biotechnology, Inc., Santa Cruz, Calif.), and responses were assessed by acridine orange staining and counting.
Apoptosis was assessed by acridine orange staining. […] A normal cell lies adjacent to the apoptotic body. This technique was used to determine the percentage of apoptotic hepatic stellate cells following exposure to cyclohexamide in the presence or absence of TIMP-1. Hepatic stellate cells were exposed to 50 μM cyclohexamide and 0, 1, 10, 100 or 200 ng/ml of TIMP-1. Cells treated with serum alone were used as controls. […] Bovine serum albumin, used as a carrier for the TIMP-1 had no antiapoptotic effect.

[9] = tested on: human hepatic stellate cells; test: Hepatic stellate cell apoptosis by acridine orange staining and counting (cycloheximide or serum deprivation), human cells; type: cell-based; details: human HSC; protein at 142.5 ng/ml
Experimental: as §2
as §3, with “Rat and human hepatic stellate cells were exposed to proapoptotic stimuli with and without recombinant TIMP-1 (Biogenesis, Poole, UK) and other manipulations as detailed below.” left out
Apoptosis was assessed by acridine orange staining. […]

`CN(C)CCCN1c2ccccc2Sc2ccc(Cl)cc21` [chlorpromazine] was tested, and the “hepatocytes that do not exclude trypan blue, compared with 50 μmol/L gliotoxin” value [1] was “a level similar”, the “cleavage of hepatocyte DNA to a nucleosomal ladder” value [2] was “only hepatocytes treated with TNF-α and cycloheximide cleaved their DNA to a nucleosomal ladder” and the “increase in caspase 3 activity” value [3] was “not seen”. The “0.1% (wt/vol) trypan blue exclusion (membrane integrity)” value [4] was “unable to exclude 0.1% (wt/vol) trypan blue”.

In the case of `O=C(CCCN1CCC2(CC1)C(=O)NCN2c1ccccc1)c1ccc(F)cc1` [Spiperone], the maximal nuclear condensation ([5]; 24 hours at 100 μM (Spiperone)) is reported as 80%, the “specific caspase 3 activity” value ([6]; 100 μM for 24 hours (Spiperone)) is reported as 6.5 μmol pNA liberated/hour/μg protein and the “specific caspase 3 activity in the presence of serotonin” value ([6]; Spiperone 100 μM for 24 hours with serotonin (100 M [sic])) is reported as 4 μmol pNA liberated/hr/μg protein.

In the case of “wild type N-TIMP-1: wild type (active) TIMP-1 protein compared with the T2G mutant”, the “caspase-3 activity in cycloheximide-treated hepatic stellate cells” value [7] is reported as “significantly reduced caspase-3 activity”, the “apoptosis induced by cycloheximide (acridine orange)” value [8] is reported as “significantly inhibited apoptosis” and the “apoptosis induced by cycloheximide (acridine orange)” value [9] is reported as “significantly inhibited apoptosis”.

`CC(O)C(C)OC(=O)[C@@H]1C[C@@H]2c3cccc4c3c(cn4C(C)C)C[C@H]2N(C)C1` (stereo partly shown) [LY 53,857] was tested, and the maximal nuclear condensation ([5]; 24 hours at 100 μM (LY 53,857)) was ~100%, the “specific caspase 3 activity” value ([6]; 100 μM for 24 hours (LY 53,857)) was 1 μmol pNA liberated/hour/μg protein and the “effect of serotonin on the specific caspase 3 activity” value [6] was “not significantly reduced by the presence of serotonin”.

For `CSc1ccc2c(c1)C(N1CCN(C)CC1)Cc1ccccc1S2.O=C(O)/C=C\C(=O)O` (stereo not shown) [Methiothepin maleate], the maximal nuclear condensation ([5]; 3 hours at 10-100 μM (Methiothepin maleate)) was 100%, the “specific caspase 3 activity” value ([6]; 10 μM for 3 hours (Methiothepin maleate)) was 0.9 μmol pNA liberated/hour/μg protein and the “effect of serotonin on the specific caspase 3 activity” value [6] was “not significantly reduced by the presence of serotonin”.
